According to patent US9526250B2, “Methods for delaying maturity of crops” (Plant Protectants, LLC, priority 2009, dated 2016):

Experiments:
firm green tomatoes = test: Fruit dipping of firm green tomatoes, peel color development (example 4); assay type: in vivo; details: 2 min immersion at 75° F., incubated at 30° C., USDA chart of FIG. 5, initial 3.5
Text: For example 4 below, assessment of the tomato peel color was made using the USDA color grading chart (FIG. 5) in addition to the Dictionary of Color.
The color grading chart (FIG. 5) is a reproduction of the “Tomato Color Standards USDA Visual Aid TM-L-1” which consists of a chart containing twelve color photographs illustrating certain color classification requirements. The official USDA chart is incorporated herein by this reference. Table 6 below sets forth approximate cross-references to the Dictionary of Color for the 12 colors of the USDA chart:
In example 4, five different treatments (A-E below) were made. There were four replications for each of the five treatments, with each replicate comprising six fruit pieces. Thus, each treatment was applied to 24 fruit pieces. The fruit treated in this example were firm green tomatoes according to the chart above was 3.5 (initial color 11-C-22) at the onset of color break. Immersion temperatures were approximately 75° F. (24° C.). […]
After the treatments were applied and left to dry for 10 minutes, all treatments were recorded for peel color using the Dictionary of Color and also the USDA Tomato Color Standards Chart (FIG. 5 herein), and rated for color development and photographed. […] (86° F.) and monitored weekly for color development. […]

green lemons = test: Fruit dipping of green lemons, peel color development (example 1); assay type: in vivo; details: 2 min immersion at 50° F., incubated at 15° C., chart of FIG. 2 (1-8), initial color approx 5.5
Text: (§1) The invention is further illustrated by the following non-limiting examples. It is to be appreciated that, although each of the exemplary experiments used potassium phosphite, that other salts of phosphorous acid, including without limitation, ammonium, sodium, and/or calcium salts, as well as phosphorous acid itself may also have been used. For examples 1 and 2 below, assessment of citrus fruit peel color was made using the following color grading charts (FIG. 1 for Navels; FIG. 2 for Lemons) in addition to the Dictionary of Color by Maerz and Paul, First Edition (1930). All experiments were conducted in solutions at approximately pH 6, although pH ranges from between about 3 and about 9 are acceptable.
Five different treatments (A-E below) were made. There were four replications for each of the five treatments, with each replicate comprising six fruit pieces. Thus, each treatment was applied to 24 fruit pieces. […]
(§2) After the treatments were applied and left to dry for 10 minutes, all treatments were recorded for peel color using FIG. 2 above and the Dictionary of Color, and rated for color development and photographed. The fruit was placed in humid incubators at 15° C. and monitored weekly for color development. […]

oranges (Navels) = test: Fruit dipping of oranges at color break, peel color development (example 2); assay type: in vivo, navel oranges; details: 2 min immersion at 50° F., incubated at 15° C., chart of FIG. 1 (1-8), initial color 5.5
Text: as §1
Five different treatments (A-E below) were made. There were four replications for each of the five treatments, with each replicate comprising six fruit pieces. Thus, each treatment was applied to 24 fruit pieces. The fruit treated in this example were oranges at the color break stage, the fruit being predominantly green with some development of orange color (initial color 5.5). […]
as §2, with “1” for “2”

[1] = test system: navel orange tree (variety Cara Cara); test: Field spray of navel orange trees in situ, fruit color development (example 3); assay type: in vivo; details: Navels on trees, pH about 5-6, assessed approximately 30 days later, chart of FIG. 1
Text: Five different treatments (T1-T5 below) were made. There were four replications for each of the five treatments, with each replicate comprising one navel orange tree (variety Cara Cara) in situ. Thus, each treatment was applied to 4 different trees. Treatments were all made using a motorized high volume agricultural sprayer and an application volume equivalent to 5000 L/ha (liters/hectare), or approximately 530 gallons/acre. This is approximately equivalent to 12.5 L (3.3 gal)/tree. The trees were sprayed during early color break (late October/early November) with a wetting agent added at 0.01% (v/v).
Treatments were as follows: • T1. Untreated trees=control. • T2. Water solution containing gibberellic acid at 16 ppm. • T3. Water solution containing potassium phosphite (expressed as equivalent amount of phosphorous acid) sprayed at 600 ppm. • T4. A tank water mixture of potassium phosphite (expressed as equivalent amount of phosphorous acid) sprayed at 300 ppm plus gibberellic acid at 16 ppm • T5. […]
The spray tank pH for all the treatments T2-T5 were adjusted with citric acid to a pH of between about 5 and about 6 (in accordance with the manufacturers instructions for gibberellic acid usage), and a small amount of a non ionic wetter added to the tank (0.01% v/v). […] The fruit on the trees were assessed for color development approximately 30 days later, during December. […]

[2] = gibberellic acid 100 ppm in water

| Compound | Mean Color Rating (firm green tomatoes; gibberellic acid 100 ppm) | Mean Color Rating (green lemons; [2]) | Mean Color Rating (oranges (Navels); [2]) | Mean Color Rating ([1]; gibberellic acid 16 ppm sprayed at 5000 L/ha) | Mean Color Rating (firm green tomatoes; 2% (w/w) potassium phosphite) | Mean Color Rating (green lemons; 2% (w/w) potassium phosphite) | Mean Color Rating (oranges (Navels); 2% (w/w) potassium phosphite) | Mean Color Rating ([1]; potassium phosphite 600 ppm (as phosphorous acid) sprayed at 5000 L/ha) |
| --- | --- | --- | --- | --- | --- | --- | --- | --- |
| C=C1C[C@]23C[C@@]1(O)CC[C@H]2[C@@]12C=C[C@H](O)[C@@](C)(C(=O)O1)[C@H]2[C@@H]3C(=O)O [Gibberellic acid (GA), gibberellic acid] | 4.6 b | 3 b | 3.2 b | 3.2 b | – | – | – | – |
| potassium phosphite | – | – | – | – | 4.8 b | 3.6 c | 3.5 bc | 3.5 bc |
